This is an account of results in paper PMC9643865, “Bromo-protopine, a novel protopine derivative, alleviates tau pathology by activating chaperone-mediated autophagy for Alzheimer’s disease therapy” (Frontiers in Molecular Biosciences, 2022).

One data set concerns HT22 cells. The data set is described as follows: LAMP2A / HSC70 immunocytochemistry and immunoblotting. Type of data set: cell-based, mouse. The protocol: (§1) SHSY5Y cells stably-expressing mutant tau (SHSYP301L) were cultured in DMEM/F12 + 15% FBS, 3 μg/ml Blasticidin S HCl, and 1X PSN. N2A mouse neuroblastoma and mouse hippocampal neuronal (HT22) cells were cultured in DMEM+10% FBS, and 1X PSN. Sterile complete medium containing PRO-Br was added to the cells, and they were then incubated for 24 h at an optimum temperature of 37°C in a sterile 5% CO2 incubator.
(§2) After PRO-Br treatment, cells were solubilised using cold RIPA lysis buffer (9803, Life Technologies), containing protease and phosphatase inhibitor tablets. Cells were sonicated and centrifuged at 14000 rpm for 15 min. Total protein concentration was determined by BCA protein assay, and the samples were separated on SDS-PAGE and transferred to PVDF membranes. The membranes were blocked, washed, and incubated with primary antibodies (Table 1), and incubated at 4°C, overnight. The membranes were further incubated with the required dilutions of secondary antibody for 1 h, at RT. The chemiluminescent signals were captured using x-ray film in a darkroom, with an appropriate chemiluminescent substrate kit (ThermoFisher Scientific, United States). Films were scanned, and the relative intensities of the signals were analyzed using ImageJ software.
HT22 cells were cultured in sterile 24-well culture dishes containing 14 mm cover-glass. Cells were treated with PRO-Br (12.5 and 25 μM), and DMSO (0.1%), for 24 h. Cells were fixed with paraformaldehyde (4%), permeabilized with triton-X-100 (0.1%), and blocked with BSA (2%). LAMP2A antibody (1:500), and HSC70 antibody (1:500) was added to the processed cells and incubated overnight at four°C. Alexa Fluor® 488 (green) and Alexa Fluor® 594 (red) secondary antibodies (1:400) were added and incubated for 1.5 h at room temperature. FluorSave reagent (Merck Millipore, United States) was added, then cover-slipped, and images were captured by a Leica confocal imaging system.

Data set [1] has as its system P301S mice. As to the kind of experiment: Brain immunoblotting (sarkosyl tau fractions, chaperones, LAMP2A) and IHC. Type of data set: in vivo. How it is done:
(§3) Female homozygous P301S mice bearing the transgene for MAPT (P301S), were generous gifts from Michael Goedert. P301S-tau mice (1.5-month-old, n = 8) were administered with PRO-Br daily for 2.5 months. The mice models employed in the study were maintained under 12 h light-dark cycles and were provided ad libitum access to chow and water.
Brain tissues from experimental mice were carefully isolated, washed with 1X PBS, and fixed with 4% paraformaldehyde. Post-fixation for 48 h, brain tissues were transferred to 30% sucrose solution for cryopreservation. Tissue sections (30 μm) were obtained using a cryotome, maintained at a constant -30°C. Permeabilization was performed with 0.4% triton-X-100 for 10 min. For tau immunofluorescence, PHF1 primary antibody was added, and sections were kept overnight at four°C. The following day, an appropriate secondary antibody was added at RT for 1.5 h. DAPI was used as a nuclear stain for 5 min. For DAB staining, AT8 primary antibody was added to the sections overnight. The next day, an appropriate secondary antibody was added for 1.5 h. Staining was performed by employing a Vectastain-ELITE ABC-HRP kit according to the manufacturer’s procedure. […] Images of cortical/hippocampal regions were taken with an Eclipse 80i fluorescence microscope (Nikon Instruments Inc.). […] The captured images were quantified using ImageJ (NIH) software.
Brain tissues of 3xTg-AD and P301S mice were separated, sagittally, into equal halves. […] Protein lysates were evaluated for changes in levels of phospho epitopes of tau (AT8, CP13, PHF-1, MC-1, and ALZ50), and for total htau (HT7) using Western blot.
After PRO-Br treatment, cells were solubilised using cold RIPA lysis buffer (9803, Life Technologies), containing protease and phosphatase inhibitor tablets. […] Total protein concentration was determined by BCA protein assay, and the samples were separated on SDS-PAGE and transferred to PVDF membranes. […] Films were scanned, and the relative intensities of the signals were analyzed using ImageJ software.

The subject of data set [2] is P301S mice. The data set is described as follows: Rotarod test. Type of data set: in vivo. Conditions: oral, 2.5 months, vs Tg-Vehicle. How it is done: as §3
Motor behavior was assessed by the rotarod test (Harvard apparatus, SeDaCom v2.0.000) and was performed according to the procedure described previously ([Song et al., 2020]). The study mice were brought into the experimental room 30 min before the test. The training was conducted with a constant speed of 4, 8, and 12 rpm on days 1, 2, and 3, respectively. Three trials were conducted each day and the performance was monitored. On the fourth day, an acceleration mode (4–40 rpm in 5 min) was introduced, and the time spent (s) by each mouse on the rod was recorded by the instrument connected to a computer.

The next data set has as its system SHSYP301L cells. The data set is described as follows: Immunoblotting of tau, Ac-α-tubulin and chaperones in tau-overexpressing cells. Type of data set: cell-based. The protocol:
as §1, §2

Data set [3] deals with P301S mice. As to the kind of experiment: Contextual fear conditioning test. Particulars: oral, 2.5 months. Type of data set: in vivo. The protocol:
as §3
After treating P301S mice with PRO-Br, fear memory consolidation was evaluated by the contextual fear conditioning (CFC) test. The experimental set-up consisted of two individual sound-proof chambers, each having an electric grid on the surface. Inside each chamber, a speaker was attached to introduce a cue tone. The movement of the mice was observed and recorded by ANY maze tracking software on a laptop. The experiment was performed with a continuous white noise (40 units) and white light (40 lux). On the first day of the training session, mice were introduced into the chamber and permitted to explore for 2.5 min. Next, each mouse received three consecutive foot shock cycles; each started with a 28 s cue tone (1,500 Hz) and finished with a 2 s foot shock ([…]). On the second day, the mice were allowed to explore the grid for 3 min, after which they received a cue tone for 30 s without foot shock, and the freezing time was recorded.

For the compound `CN1CCc2cc3c(cc2C(=O)Cc2c(Br)cc4c(c2C1)OCO4)OCO3` [PRO-Br, bromo-protopine], in the data set with HT22 cells (immunocytochemistry, 12.5 and 25 μM, 24 h), the “expression of LAMP2A” value is on record as “distinctly enhanced the expression of LAMP2A in a dose-dependent manner”. The “interaction between HSC70 and LAMP2A” value in the data set on HT22 cells (immunofluorescence) is “markedly enhanced the interaction between HSC70 and LAMP2A”. Also, in the data set with P301S mice [1] (IHC), the “AT8- and PHF1-positive cell counts” value is reported as “significantly reduced”. In the data set on P301S mice [1] (brain, immunoblotting), the “expression of sarkosyl-insoluble phospho-tau variants” value is “specifically reduced the expression of sarkosyl-insoluble phospho-tau variants in a dose-dependent manner” and the “protein expression of LAMP2A” value is “dose-dependently increased”. The “latency of falling (rotarod)” value in the data set on P301S mice [2] is recorded as “latency of falling was significantly enhanced”. Also, in the data set on SHSYP301L cells (24 h), the “PHF1 and TAU5 levels” value was “simultaneously reducing PHF1 and TAU5 levels”; the “expression of HSP70” value was “significantly and dose-dependently augmented the expression of HSP70”. Moreover, the “acetylation of α-tubulin” value in the data set on SHSYP301L cells (compared to PRO) is given as “enhanced the acetylation of α-tubulin”. In addition, in the data set on SHSYP301L cells (compared to PRO-Br treatment alone), the “PHF1 degradation on co-treatment with CMA/lysosomal protease inhibitors E64D and pepstatin” value is “significantly blocked the degradation of PHF1 levels”. For the same compound, in the data set on SHSYP301L cells (preliminary screening), the tau/PHF1-reducing activity result was “good tau/PHF1-reducing activity”. Also, in the data set on SHSYP301L cells (proteasome, autophagy or lysosome inhibitor co-treatment), the “PHF1 degradation on co-treatment with MG132, Wortmannin or Chloroquine” value is listed as “did not block PRO-Br-mediated PHF1 degradation”. Besides, the “freezing percentage (CFC)” value in the data set on P301S mice [3] is reported as “significant increase in freezing percentage”.
